Experimental data: EP2303842B1, “A process for producing lercanidipine.HCl form V” (Recordati Ireland Limited, priority 2008, dated 2010)
Where a name gives a salt, the structure may show the parent alone.

Assay: Solubility determination in water, HCl 0.1 M and organic solvents (shaken suspensions, HPLC assay of the supernatant)
Assay type: physicochemical
Settings: 25°C, shaken 24h, 1440 min
Description: For this purpose, solubility determination at RT of FI, FII and FV in water, HCl 0.1 M and some organic solvents has been carried out as described in the experimental section.
Suspensions in different solvents, ranging in concentration from 20 mg/mL to 400 mg/mL, depending on the solubility, were shaken with thermomixer at 25°C, […] for 24h. An aliquot was taken, centrifuged for 5 minutes at 13000 rpm, the supernatant was transferred in HPLC vials, opportunely diluted and assayed. For aqueous solvent the supernatant was further filtered with a 0.2 µm PVDF filter and centrifuged for 5 minutes at 8000 rpm.
Solubility data (mg/mL) obtained are gathered in Table 2. Table 2: solubility
HPLC-DAD: HP 1050 separation module controlled by HP Chem-station. Method:
Standard and calibration: automatic three point calibration (0.5 mg/mL, 1.0 mg/mL, 1.5 mg/mL), including the zero, using HP Chem-station program.

[1] = solvent H2O, supernatant filtered 0.2 µm PVDF
[2] = solvent HCl 0.1M, supernatant filtered 0.2 µm PVDF

| Solubility (solvent ACN) | Solubility (solvent EtOH) | Solubility [1] | Solubility [2] | Solubility (solvent MeOH) | Solubility (solvent acetone) | SMILES |
| --- | --- | --- | --- | --- | --- | --- |
| 4800 µg/mL | 10500 µg/mL | 300 µg/mL | 9 µg/mL | 83900 µg/mL | 2700 µg/mL | COC(=O)C1=C(C)NC(C)=C(C(=O)OC(C)(C)CN(C)CCC(c2ccccc2)c2ccccc2)C1c1cccc([N+](=O)[O-])c1 (single isomer, unassigned) [FII, Lercanidipine.HCl Form II] |
| 26100 µg/mL | 46720 µg/mL | 960 µg/mL | 70 µg/mL | 221900 µg/mL | 18500 µg/mL | COC(=O)C1=C(C)NC(C)=C(C(=O)OC(C)(C)CN(C)CCC(c2ccccc2)c2ccccc2)C1c1cccc([N+](=O)[O-])c1 (single isomer, unassigned) [FV, Lercanidipine.HCl Form V] |
| 13800 µg/mL | 28200 µg/mL | 1600 µg/mL | 200 µg/mL | 263900 µg/mL | 9400 µg/mL | COC(=O)C1=C(C)NC(C)=C(C(=O)OC(C)(C)CN(C)CCC(c2ccccc2)c2ccccc2)C1c1cccc([N+](=O)[O-])c1 (single isomer, unassigned) [FI, Lercanidipine.HCl Form I] |
